According to patent publication US20260356819A1, “OXOISOINDOLINYL-SUBSTITUTED […] DERIVATIVE AND USE THEREOF” (GLUETACS THERAPEUTICS (SHANGHAI) CO., LTD., priority 2023, published 2026):

Columns and labels:
Type in all cases: cell-based
Settings in all cases: compounds at 50 nM and 500 nM
[1] = molecular target: T1, CK1α (Homo sapiens, UniProt P48729+Q96SW2); assay: Western blot degradation of CK1α in hPBMCs (24 h)
T1 construct: The supernatant was aspirated as the extracted total cell protein; endogenous in cells; host or cells: human peripheral blood mononuclear cells (hPBMCs)
How it was run: (§1)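 Degradation in primary human PBMCs after 24 h compound exposure at 50 and 500 nM. Western blot band intensities, normalised to an internal control protein, expressed as % protein remaining relative to DMSO.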

[2] = molecular target: T2, IKZF3 (Homo sapiens, UniProt Q96SW2+Q9UKT9); assay: Western blot degradation of IKZF3 in hPBMCs (24 h)
T2 construct: The supernatant was aspirated as the extracted total cell protein; endogenous in cells; host or cells: human peripheral blood mononuclear cells (hPBMCs)
How it was run: as §1

[3] = molecular target: T3, IKZF1 (Homo sapiens, UniProt Q13422+Q96SW2); assay: Western blot degradation of IKZF1 in hPBMCs (24 h)
T3 construct: The supernatant was aspirated as the extracted total cell protein; endogenous in cells; host or cells: human peripheral blood mononuclear cells (hPBMCs)
How it was run: as §1

[4] = molecular target: T4, IKZF2 (Homo sapiens, UniProt Q96SW2+Q9UKS7); assay: Western blot degradation of IKZF2 in hPBMCs (24 h)
T4 construct: The supernatant was aspirated as the extracted total cell protein; endogenous in cells; host or cells: human peripheral blood mononuclear cells (hPBMCs)
How it was run: as §1

[5] = molecular target: T5, WEE1 (Homo sapiens, UniProt P30291+Q96SW2); assay: Western blot degradation of WEE1 in hPBMCs (24 h)
T5 construct: The supernatant was aspirated as the extracted total cell protein; endogenous in cells; host or cells: human peripheral blood mononuclear cells (hPBMCs)
How it was run: as §1

[6] = molecular target: T6, GSPT1 (Homo sapiens, UniProt P15170+Q96SW2); assay: Western blot degradation of GSPT1 in hPBMCs (24 h)
T6 construct: The supernatant was aspirated as the extracted total cell protein; endogenous in cells; host or cells: human peripheral blood mononuclear cells (hPBMCs)
How it was run: as §1

T1 sequence (P48729 whole entry): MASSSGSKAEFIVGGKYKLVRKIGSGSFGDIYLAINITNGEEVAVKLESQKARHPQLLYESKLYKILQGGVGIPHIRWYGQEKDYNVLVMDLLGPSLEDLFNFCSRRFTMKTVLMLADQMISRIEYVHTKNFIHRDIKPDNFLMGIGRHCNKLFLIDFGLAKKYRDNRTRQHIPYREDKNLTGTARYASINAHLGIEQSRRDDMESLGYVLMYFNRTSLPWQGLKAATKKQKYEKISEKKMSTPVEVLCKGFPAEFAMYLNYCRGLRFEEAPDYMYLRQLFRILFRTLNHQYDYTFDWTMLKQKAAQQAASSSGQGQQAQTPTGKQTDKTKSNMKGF
T1 sequence (Q96SW2 whole entry): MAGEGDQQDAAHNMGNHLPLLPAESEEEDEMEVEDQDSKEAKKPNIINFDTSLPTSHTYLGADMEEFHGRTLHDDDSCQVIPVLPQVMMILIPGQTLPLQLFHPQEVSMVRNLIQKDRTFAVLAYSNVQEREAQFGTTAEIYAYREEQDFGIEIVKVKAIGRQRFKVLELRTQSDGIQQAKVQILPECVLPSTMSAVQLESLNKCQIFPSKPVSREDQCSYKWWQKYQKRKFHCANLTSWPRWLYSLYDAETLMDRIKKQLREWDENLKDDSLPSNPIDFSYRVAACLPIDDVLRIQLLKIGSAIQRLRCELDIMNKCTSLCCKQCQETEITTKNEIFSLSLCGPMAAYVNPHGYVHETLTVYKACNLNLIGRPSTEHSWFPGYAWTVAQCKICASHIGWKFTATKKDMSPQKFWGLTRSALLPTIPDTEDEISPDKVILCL
T1 sequence (Q16531 whole entry partner): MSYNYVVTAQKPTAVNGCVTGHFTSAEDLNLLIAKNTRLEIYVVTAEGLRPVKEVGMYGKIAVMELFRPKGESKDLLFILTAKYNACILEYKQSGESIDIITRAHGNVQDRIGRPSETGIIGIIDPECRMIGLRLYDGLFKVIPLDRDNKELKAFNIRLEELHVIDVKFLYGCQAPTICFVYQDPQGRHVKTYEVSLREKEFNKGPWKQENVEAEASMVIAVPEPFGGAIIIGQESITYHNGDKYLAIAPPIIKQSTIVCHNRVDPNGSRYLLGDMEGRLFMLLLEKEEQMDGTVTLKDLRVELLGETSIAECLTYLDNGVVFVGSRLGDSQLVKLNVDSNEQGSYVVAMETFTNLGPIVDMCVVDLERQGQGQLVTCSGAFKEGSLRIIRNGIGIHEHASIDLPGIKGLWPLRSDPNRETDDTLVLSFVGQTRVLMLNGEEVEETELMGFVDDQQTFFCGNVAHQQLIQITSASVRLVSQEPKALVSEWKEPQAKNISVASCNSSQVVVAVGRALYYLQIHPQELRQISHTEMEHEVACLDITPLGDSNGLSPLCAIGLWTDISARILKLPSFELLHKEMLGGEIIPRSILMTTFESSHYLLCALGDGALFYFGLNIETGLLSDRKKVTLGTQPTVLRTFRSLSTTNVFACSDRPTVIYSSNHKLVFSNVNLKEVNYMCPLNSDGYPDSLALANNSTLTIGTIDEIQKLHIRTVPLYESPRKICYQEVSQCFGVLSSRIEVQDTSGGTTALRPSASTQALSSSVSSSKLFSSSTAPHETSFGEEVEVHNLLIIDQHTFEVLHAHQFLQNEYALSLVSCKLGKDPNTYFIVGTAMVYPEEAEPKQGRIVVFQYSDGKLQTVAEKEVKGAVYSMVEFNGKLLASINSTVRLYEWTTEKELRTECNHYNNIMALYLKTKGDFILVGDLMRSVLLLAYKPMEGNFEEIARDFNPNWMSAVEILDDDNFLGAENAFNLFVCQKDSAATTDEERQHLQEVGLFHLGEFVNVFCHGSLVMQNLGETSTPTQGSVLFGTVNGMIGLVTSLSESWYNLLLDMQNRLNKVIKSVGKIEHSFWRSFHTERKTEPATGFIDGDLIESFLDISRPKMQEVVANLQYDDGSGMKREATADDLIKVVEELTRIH
T3 sequence (Q13422 whole entry): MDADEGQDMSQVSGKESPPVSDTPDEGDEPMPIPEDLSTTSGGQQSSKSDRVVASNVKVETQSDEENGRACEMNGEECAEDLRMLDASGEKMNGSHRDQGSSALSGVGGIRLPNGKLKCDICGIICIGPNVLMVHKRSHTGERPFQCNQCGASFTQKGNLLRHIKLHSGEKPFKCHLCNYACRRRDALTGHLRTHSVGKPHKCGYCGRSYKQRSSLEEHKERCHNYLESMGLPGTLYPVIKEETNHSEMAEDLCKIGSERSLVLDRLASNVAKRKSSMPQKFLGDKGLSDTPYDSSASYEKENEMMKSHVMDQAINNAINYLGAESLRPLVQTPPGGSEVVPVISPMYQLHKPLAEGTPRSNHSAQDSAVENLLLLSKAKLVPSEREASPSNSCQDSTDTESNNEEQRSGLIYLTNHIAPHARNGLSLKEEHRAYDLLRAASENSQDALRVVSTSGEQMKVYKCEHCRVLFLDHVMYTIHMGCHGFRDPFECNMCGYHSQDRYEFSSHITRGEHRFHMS
T3 sequence (Q96SW2 whole entry): as the sequence (Q96SW2 whole entry) above
T3 sequence (Q16531 whole entry partner): as the sequence (Q16531 whole entry partner) above
T2 sequence (Q9UKT9 whole entry): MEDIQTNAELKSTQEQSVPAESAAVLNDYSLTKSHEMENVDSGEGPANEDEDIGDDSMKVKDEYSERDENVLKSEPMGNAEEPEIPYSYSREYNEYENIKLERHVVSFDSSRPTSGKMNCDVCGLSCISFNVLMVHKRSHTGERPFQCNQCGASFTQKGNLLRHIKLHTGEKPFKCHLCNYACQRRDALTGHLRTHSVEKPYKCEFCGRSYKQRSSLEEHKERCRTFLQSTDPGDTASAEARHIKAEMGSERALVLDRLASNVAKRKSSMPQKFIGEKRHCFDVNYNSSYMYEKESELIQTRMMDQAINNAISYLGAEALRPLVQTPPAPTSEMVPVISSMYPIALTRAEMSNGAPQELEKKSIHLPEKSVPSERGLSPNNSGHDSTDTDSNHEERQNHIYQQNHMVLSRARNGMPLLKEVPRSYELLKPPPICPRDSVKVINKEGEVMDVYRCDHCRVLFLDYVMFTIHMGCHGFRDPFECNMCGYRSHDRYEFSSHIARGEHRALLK
T2 sequence (Q96SW2 whole entry): as the sequence (Q96SW2 whole entry) above
T2 sequence (Q16531 whole entry partner): as the sequence (Q16531 whole entry partner) above
T6 sequence (P15170 whole entry): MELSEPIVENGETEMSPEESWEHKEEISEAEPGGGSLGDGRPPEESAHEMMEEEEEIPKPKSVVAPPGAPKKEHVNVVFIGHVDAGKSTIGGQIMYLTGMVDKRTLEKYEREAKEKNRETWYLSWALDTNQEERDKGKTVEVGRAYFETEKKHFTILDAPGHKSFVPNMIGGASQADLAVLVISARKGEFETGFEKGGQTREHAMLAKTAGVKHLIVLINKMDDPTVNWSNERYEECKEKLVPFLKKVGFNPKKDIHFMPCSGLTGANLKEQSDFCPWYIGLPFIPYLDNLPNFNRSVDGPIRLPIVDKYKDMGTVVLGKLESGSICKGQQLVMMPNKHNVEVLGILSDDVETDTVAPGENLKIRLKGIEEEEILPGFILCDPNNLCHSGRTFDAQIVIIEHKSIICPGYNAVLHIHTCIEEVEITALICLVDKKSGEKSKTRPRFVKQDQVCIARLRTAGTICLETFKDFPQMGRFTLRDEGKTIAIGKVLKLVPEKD
T6 sequence (Q96SW2 whole entry): as the sequence (Q96SW2 whole entry) above
T6 sequence (Q16531 whole entry partner): as the sequence (Q16531 whole entry partner) above
T5 sequence (P30291 whole entry): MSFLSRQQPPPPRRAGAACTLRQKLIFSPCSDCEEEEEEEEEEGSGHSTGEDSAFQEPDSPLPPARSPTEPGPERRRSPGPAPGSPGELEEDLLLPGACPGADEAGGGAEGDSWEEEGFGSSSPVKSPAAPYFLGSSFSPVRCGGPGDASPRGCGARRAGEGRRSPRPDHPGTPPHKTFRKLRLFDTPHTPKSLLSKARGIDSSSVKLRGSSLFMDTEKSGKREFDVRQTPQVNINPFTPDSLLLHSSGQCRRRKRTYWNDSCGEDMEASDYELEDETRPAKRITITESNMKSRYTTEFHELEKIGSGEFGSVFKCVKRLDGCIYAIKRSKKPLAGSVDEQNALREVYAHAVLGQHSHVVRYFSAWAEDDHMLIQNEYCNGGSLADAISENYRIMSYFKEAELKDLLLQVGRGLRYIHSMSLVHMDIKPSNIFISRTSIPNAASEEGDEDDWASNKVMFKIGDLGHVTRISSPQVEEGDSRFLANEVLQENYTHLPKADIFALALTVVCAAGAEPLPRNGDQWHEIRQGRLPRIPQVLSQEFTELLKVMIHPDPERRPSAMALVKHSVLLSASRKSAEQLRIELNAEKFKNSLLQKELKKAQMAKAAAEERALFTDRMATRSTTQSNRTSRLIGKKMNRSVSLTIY
T5 sequence (Q96SW2 whole entry): as the sequence (Q96SW2 whole entry) above
T5 sequence (Q16531 whole entry partner): as the sequence (Q16531 whole entry partner) above

Compound: O=C1CCN(N2C(=O)c3ccc(CN4CCN(Cc5ccc(C67CC8CC(CC(C8)C6)C7)cc5)CC4)cc3C2=O)C(=O)N1 [GT-07722, 5-((4-(4-((3r,5r,7r)-adamantan-1-yl)benzyl)piperazin-1-yl)methyl)-2-(2,4-dioxotetrahydropyrimidin-1(2H)-yl)isoindoline-1,3-dione]
- CK1α substrate protein remaining % [1]: A (0% ≤ substrate protein remaining % ≤80%)
- IKZF3 substrate protein remaining % [2]: A (0% ≤ substrate protein remaining % ≤80%)
- IKZF1 substrate protein remaining % [3]: B (80%< substrate protein remaining % ≤100%)
- IKZF2 substrate protein remaining % [4]: A (0% ≤ substrate protein remaining % ≤80%)
- WEE1 substrate protein remaining % [5]: A (0% ≤ substrate protein remaining % ≤80%)
- GSPT1 substrate protein remaining % [6]: A (0% ≤ substrate protein remaining % ≤80%)

Compound: O=C1CCN(N2Cc3cc(CNC45CC6CC(CC(O)(C6)C4)C5)ccc3C2=O)C(=O)N1 [GT-07784, 1-(5-((((1r,3s,5R,7S)-3-hydroxyadamantan-1-yl)amino)methyl)-1-oxoisoindolin-2-yl)dihydropyrimidine-2,4(1H,3H)-dione]
- CK1α substrate protein remaining % [1]: B (80%< substrate protein remaining % ≤100%)
- IKZF3 substrate protein remaining % [2]: B (80%< substrate protein remaining % ≤100%)
- IKZF1 substrate protein remaining % [3]: B (80%< substrate protein remaining % ≤100%)
- IKZF2 substrate protein remaining % [4]: A (0% ≤ substrate protein remaining % ≤80%)
- WEE1 substrate protein remaining % [5]: B (80%< substrate protein remaining % ≤100%)
- GSPT1 substrate protein remaining % [6]: B (80%< substrate protein remaining % ≤100%)

Compound: O=C1CCN(N2C(=O)c3ccc(CNC45CC6CC(CC(O)(C6)C4)C5)cc3C2=O)C(=O)N1 [GT-07786, 2-(2,4-dioxotetrahydropyrimidin-1(2H)-yl)-5-((((1r,3s,5R,7S)-3-hydroxyadamantan-1-yl)amino)methyl)isoindoline-1,3-dione]
- CK1α substrate protein remaining % [1]: B (80%< substrate protein remaining % ≤100%)
- IKZF3 substrate protein remaining % [2]: B (80%< substrate protein remaining % ≤100%)
- IKZF1 substrate protein remaining % [3]: B (80%< substrate protein remaining % ≤100%)
- IKZF2 substrate protein remaining % [4]: B (80%< substrate protein remaining % ≤100%)
- WEE1 substrate protein remaining % [5]: B (80%< substrate protein remaining % ≤100%)
- GSPT1 substrate protein remaining % [6]: A (0% ≤ substrate protein remaining % ≤80%)

Compound: NCc1ccc2c(c1)C(=O)N(N1CCC(=O)NC1=O)C2=O [GT-07968, 5-(aminomethyl)-2-(2,4-dioxotetrahydropyrimidin-1(2H)-yl)isoindoline-1,3-dione]
- CK1α substrate protein remaining % [1]: A (0% ≤ substrate protein remaining % ≤80%)
- IKZF3 substrate protein remaining % [2]: A (0% ≤ substrate protein remaining % ≤80%)
- IKZF1 substrate protein remaining % [3]: A (0% ≤ substrate protein remaining % ≤80%)
- IKZF2 substrate protein remaining % [4]: A (0% ≤ substrate protein remaining % ≤80%)
- WEE1 substrate protein remaining % [5]: A (0% ≤ substrate protein remaining % ≤80%)
- GSPT1 substrate protein remaining % [6]: B (80%< substrate protein remaining % ≤100%)

Compound: O=C1CCN(N2Cc3cc(CN4CC=C(c5cccc(Cl)c5Cl)CC4)ccc3C2=O)C(=O)N1 [GT-08054, 1-(5-((4-(2,3-dichlorophenyl)-3,6-dihydropyridin-1(2H)-yl)methyl)-1-oxoisoindolin-2-yl)dihydropyrimidine-2,4(1H,3H)-dione]
- CK1α substrate protein remaining % [1]: A (0% ≤ substrate protein remaining % ≤80%)
- IKZF3 substrate protein remaining % [2]: A (0% ≤ substrate protein remaining % ≤80%)
- IKZF1 substrate protein remaining % [3]: A (0% ≤ substrate protein remaining % ≤80%)
- IKZF2 substrate protein remaining % [4]: A (0% ≤ substrate protein remaining % ≤80%)
- WEE1 substrate protein remaining % [5]: A (0% ≤ substrate protein remaining % ≤80%)
- GSPT1 substrate protein remaining % [6]: A (0% ≤ substrate protein remaining % ≤80%)

Compound: O=C1CCN(N2Cc3cc(CN4CC=C(c5cccc(F)c5Cl)CC4)ccc3C2=O)C(=O)N1 [GT-08055, 1-(5-((4-(2-chloro-3-fluorophenyl)-3,6-dihydropyridin-1(2H)-yl)methyl)-1-oxoisoindolin-2-yl)dihydropyrimidine-2,4(1H,3H)-dione]
- CK1α substrate protein remaining % [1]: A (0% ≤ substrate protein remaining % ≤80%)
- IKZF3 substrate protein remaining % [2]: A (0% ≤ substrate protein remaining % ≤80%)
- IKZF1 substrate protein remaining % [3]: A (0% ≤ substrate protein remaining % ≤80%)
- IKZF2 substrate protein remaining % [4]: A (0% ≤ substrate protein remaining % ≤80%)
- WEE1 substrate protein remaining % [5]: A (0% ≤ substrate protein remaining % ≤80%)
- GSPT1 substrate protein remaining % [6]: A (0% ≤ substrate protein remaining % ≤80%)

Compound: O=C1CCN(N2Cc3cc(CN4CCN(c5ncnc6sccc56)CC4)ccc3C2=O)C(=O)N1 [GT-08057, 1-(1-oxo-5-((4-(thieno[2,3-d]pyrimidin-4-yl)piperazin-1-yl)methyl)isoindolin-2-yl)dihydropyrimidine-2,4(1H,3H)-dione]
- CK1α substrate protein remaining % [1]: B (80%< substrate protein remaining % ≤100%)
- IKZF3 substrate protein remaining % [2]: B (80%< substrate protein remaining % ≤100%)
- IKZF1 substrate protein remaining % [3]: A (0% ≤ substrate protein remaining % ≤80%)
- IKZF2 substrate protein remaining % [4]: B (80%< substrate protein remaining % ≤100%)
- WEE1 substrate protein remaining % [5]: B (80%< substrate protein remaining % ≤100%)
- GSPT1 substrate protein remaining % [6]: A (0% ≤ substrate protein remaining % ≤80%)

Compound: Cc1csc2ncnc(N3CCN(Cc4ccc5c(c4)CN(N4CCC(=O)NC4=O)C5=O)CC3)c12 [GT-08058, 1-(5-((4-(5-methylthieno[2,3-d]pyrimidin-4-yl)piperazin-1-yl)methyl)-1-oxoisoindolin-2-yl)dihydropyrimidine-2,4(1H,3H)-dione]
- CK1α substrate protein remaining % [1]: B (80%< substrate protein remaining % ≤100%)
- IKZF3 substrate protein remaining % [2]: B (80%< substrate protein remaining % ≤100%)
- IKZF1 substrate protein remaining % [3]: A (0% ≤ substrate protein remaining % ≤80%)
- IKZF2 substrate protein remaining % [4]: B (80%< substrate protein remaining % ≤100%)
- WEE1 substrate protein remaining % [5]: B (80%< substrate protein remaining % ≤100%)
- GSPT1 substrate protein remaining % [6]: B (80%< substrate protein remaining % ≤100%)

Compound: Cc1cc2c(N3CCN(Cc4ccc5c(c4)CN(N4CCC(=O)NC4=O)C5=O)CC3)ncnc2s1 [GT-08059, 1-(5-((4-(6-methylthieno[2,3-d]pyrimidin-4-yl)piperazin-1-yl)methyl)-1-oxoisoindolin-2-yl)dihydropyrimidine-2,4(1H,3H)-dione]
- CK1α substrate protein remaining % [1]: B (80%< substrate protein remaining % ≤100%)
- IKZF3 substrate protein remaining % [2]: A (0% ≤ substrate protein remaining % ≤80%)
- IKZF1 substrate protein remaining % [3]: B (80%< substrate protein remaining % ≤100%)
- IKZF2 substrate protein remaining % [4]: B (80%< substrate protein remaining % ≤100%)
- WEE1 substrate protein remaining % [5]: B (80%< substrate protein remaining % ≤100%)
- GSPT1 substrate protein remaining % [6]: B (80%< substrate protein remaining % ≤100%)

Compound: CC(C)c1cc2c(N3CCN(Cc4ccc5c(c4)CN(N4CCC(=O)NC4=O)C5=O)CC3)ncnc2s1 [GT-08060, 1-(5-((4-(6-isopropylthieno[2,3-d]pyrimidin-4-yl)piperazin-1-yl)methyl)-1-oxoisoindolin-2-yl)dihydropyrimidine-2,4(1H,3H)-dione]
- CK1α substrate protein remaining % [1]: B (80%< substrate protein remaining % ≤100%)
- IKZF3 substrate protein remaining % [2]: A (0% ≤ substrate protein remaining % ≤80%)
- IKZF1 substrate protein remaining % [3]: B (80%< substrate protein remaining % ≤100%)
- IKZF2 substrate protein remaining % [4]: A (0% ≤ substrate protein remaining % ≤80%)
- WEE1 substrate protein remaining % [5]: B (80%< substrate protein remaining % ≤100%)
- GSPT1 substrate protein remaining % [6]: B (80%< substrate protein remaining % ≤100%)

Compound: Cc1sc2ncnc(N3CCN(Cc4ccc5c(c4)CN(N4CCC(=O)NC4=O)C5=O)CC3)c2c1C [GT-08061, 1-(5-((4-(5,6-dimethylthieno[2,3-d]pyrimidin-4-yl)piperazin-1-yl)methyl)-1-oxoisoindolin-2-yl)dihydropyrimidine-2,4(1H,3H)-dione]
- CK1α substrate protein remaining % [1]: B (80%< substrate protein remaining % ≤100%)
- IKZF3 substrate protein remaining % [2]: A (0% ≤ substrate protein remaining % ≤80%)
- IKZF1 substrate protein remaining % [3]: B (80%< substrate protein remaining % ≤100%)
- IKZF2 substrate protein remaining % [4]: A (0% ≤ substrate protein remaining % ≤80%)
- WEE1 substrate protein remaining % [5]: B (80%< substrate protein remaining % ≤100%)
- GSPT1 substrate protein remaining % [6]: B (80%< substrate protein remaining % ≤100%)

Compound: Cc1sc2ncnc(N3CCCN(Cc4ccc5c(c4)CN(N4CCC(=O)NC4=O)C5=O)CC3)c2c1C [GT-08062, 1-(5-((4-(5,6-dimethylthieno[2,3-d]pyrimidin-4-yl)-1,4-diazepan-1-yl)methyl)-1-oxoisoindolin-2-yl)dihydropyrimidine-2,4(1H,3H)-dione]
- CK1α substrate protein remaining % [1]: B (80%< substrate protein remaining % ≤100%)
- IKZF3 substrate protein remaining % [2]: A (0% ≤ substrate protein remaining % ≤80%)
- IKZF1 substrate protein remaining % [3]: B (80%< substrate protein remaining % ≤100%)
- IKZF2 substrate protein remaining % [4]: A (0% ≤ substrate protein remaining % ≤80%)
- WEE1 substrate protein remaining % [5]: B (80%< substrate protein remaining % ≤100%)
- GSPT1 substrate protein remaining % [6]: B (80%< substrate protein remaining % ≤100%)
